Experimental data as given in ChEMBL document CHEMBL1132018, “Design and synthesis of thiol containing inhibitors of matrix metalloproteinases” (Bioorg Med Chem Lett, 1999).
pIC50: −log10 of the molar value.

What was measured:
Interstitial collagenase [1] = target: T1, Interstitial collagenase (Homo sapiens, UniProt P03956); test: In vitro inhibitory activity against matrix metalloprotease 1
T1 sequence (P03956 whole entry): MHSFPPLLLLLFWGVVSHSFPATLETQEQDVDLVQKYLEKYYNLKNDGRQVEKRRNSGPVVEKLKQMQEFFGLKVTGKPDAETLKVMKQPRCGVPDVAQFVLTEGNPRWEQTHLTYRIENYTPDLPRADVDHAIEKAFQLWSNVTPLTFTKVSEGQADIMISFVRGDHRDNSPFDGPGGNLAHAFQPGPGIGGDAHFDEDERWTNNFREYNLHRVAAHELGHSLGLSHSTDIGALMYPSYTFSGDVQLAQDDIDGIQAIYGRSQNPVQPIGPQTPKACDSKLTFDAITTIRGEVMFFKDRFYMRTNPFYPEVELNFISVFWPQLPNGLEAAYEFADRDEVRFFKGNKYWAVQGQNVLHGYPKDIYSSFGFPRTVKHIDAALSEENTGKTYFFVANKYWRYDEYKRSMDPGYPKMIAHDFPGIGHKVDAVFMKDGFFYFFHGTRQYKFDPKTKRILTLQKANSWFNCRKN

[2] = target: Matrix metalloproteinase-9 (Rattus norvegicus, UniProt P50282); test: In vitro inhibitory activity against matrix metalloprotease-9
Rattus norvegicus [3] = test: Drug level in plasma was determined 2 hours after administration to 2 rats orally at 75 umol/kg; type: functional, organism-based
Rattus norvegicus [4] = test: Drug level in plasma was determined 4 hours after administration to 2 rats orally at 75 umol/kg; type: functional, organism-based
Interstitial collagenase [5] = target: T1, Interstitial collagenase; test: Inhibition of matrix metalloprotease 1 (MMP 1)
Rattus norvegicus [6] = test: Drug level in plasma was determined 2 hours after administration to 3 rats orally at 75 umol/kg; type: functional, organism-based
Rattus norvegicus [7] = test: Drug level in plasma was determined 4 hours after administration to 3 rats orally at 75 umol/kg; type: functional, organism-based

Matrix metalloproteinase-9, sequence (P50282 whole entry): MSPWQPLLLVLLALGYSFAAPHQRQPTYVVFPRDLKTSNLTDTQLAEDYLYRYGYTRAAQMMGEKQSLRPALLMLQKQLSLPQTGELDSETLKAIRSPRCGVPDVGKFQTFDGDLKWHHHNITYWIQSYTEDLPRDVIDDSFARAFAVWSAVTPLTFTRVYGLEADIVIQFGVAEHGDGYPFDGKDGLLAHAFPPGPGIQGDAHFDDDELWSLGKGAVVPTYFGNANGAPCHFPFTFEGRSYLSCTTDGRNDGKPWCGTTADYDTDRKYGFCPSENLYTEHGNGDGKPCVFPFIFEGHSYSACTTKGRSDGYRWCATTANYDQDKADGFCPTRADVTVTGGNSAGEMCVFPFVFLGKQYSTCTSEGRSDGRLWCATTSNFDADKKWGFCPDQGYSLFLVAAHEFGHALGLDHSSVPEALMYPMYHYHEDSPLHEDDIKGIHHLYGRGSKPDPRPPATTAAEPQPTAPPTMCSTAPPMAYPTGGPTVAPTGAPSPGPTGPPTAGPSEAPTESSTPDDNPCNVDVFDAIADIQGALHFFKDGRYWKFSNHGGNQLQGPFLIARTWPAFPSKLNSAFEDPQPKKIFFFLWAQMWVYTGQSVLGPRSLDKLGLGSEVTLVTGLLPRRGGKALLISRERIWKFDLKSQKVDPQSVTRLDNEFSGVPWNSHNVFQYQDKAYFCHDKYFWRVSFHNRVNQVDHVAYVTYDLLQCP

| Compound | pIC50 (Interstitial collagenase [1]) | pIC50 [2] | further results |
| --- | --- | --- | --- |
| CCOc1ccc(C[C@H](NC(=O)[C@]2(CS)CC[C@H](OCC)CC2)C(=O)Nc2ccccc2)cc1 | 5.49 | 7.47 | – |
| CCO[C@H]1CC[C@@](CS)(C(=O)N[C@@H](Cc2ccccc2)C(=O)Nc2ccccn2)CC1 | 5.46 | 6.92 | – |
| CCO[C@H]1CC[C@@](CS)(C(=O)N[C@@H](Cc2ccccc2)C(=O)Nc2cccnc2)CC1 | 6.87 | 7.77 | Plasma concentration (Rattus norvegicus [3]): 253 nM; Plasma concentration (Rattus norvegicus [4]): 289 nM |
| CCO[C@H]1CC[C@@](CS)(C(=O)N[C@@H](Cc2ccc(O)cc2)C(=O)Nc2ccccc2)CC1 | 6.13 | 7.85 | – |
| CCO[C@H]1CC[C@@](CS)(C(=O)N[C@@H](Cc2ccccc2)C(=O)NC2CCCCC2)CC1 | 5.53 | 7.10 | – |
| CCO[C@H]1CC[C@@](CS)(C(=O)N[C@@H](Cc2ccc(F)cc2)C(=O)Nc2ccccc2)CC1 | 5.20 | 7.08 | – |
| CCO[C@H]1CC[C@@](CS)(C(=O)N[C@@H](Cc2ccccc2)C(=O)Nc2ccc(N(C)C)cc2)CC1 | 5.88 | 7.20 | – |
| CCO[C@H]1CC[C@@](CS)(C(=O)N[C@@H](Cc2ccccc2)C(=O)Nc2ccc(F)cc2)CC1 | 5.67 | 7.28 | – |
| CCO[C@H]1CC[C@@](CS)(C(=O)N[C@@H](Cc2ccc(Cl)cc2)C(=O)Nc2ccccc2)CC1 | 5.71 | 7.18 | – |
| CNC(=O)[C@H](Cc1ccccc1)NC(=O)C1(CS)CCCCC1 | 5.30 | 6.46 | – |
| CCCO[C@H]1CC[C@@](CS)(C(=O)N[C@@H](Cc2ccccc2)C(=O)NC)CC1 | 5.22 | 6.20 | – |
| CCO[C@H]1CC[C@@](CS)(C(=O)N[C@@H](Cc2ccccc2)C(=O)Nc2ccc(OC)cc2)CC1 | 5.90 | 7.34 | – |
| CCO[C@H]1CC[C@@](CS)(C(=O)N[C@@H](Cc2ccccc2)C(=O)NC2CCCC2)CC1 | 6.25 | 7.62 | – |
| CCO[C@H]1CC[C@@](CS)(C(=O)N[C@@H](Cc2ccc(OC)cc2)C(=O)Nc2ccccc2)CC1 | – | 7.70 | pIC50 (Interstitial collagenase [5]): 5.98 |
| CCO[C@H]1CC[C@@](CS)(C(=O)N[C@@H](Cc2ccccc2)C(=O)NC)CC1 | 6.15 | 7.74 | – |
| CCO[C@H]1CC[C@@](CS)(C(=O)N[C@@H](Cc2cccnc2)C(=O)Nc2ccccc2)CC1 | 6.25 | 7.68 | – |
| CCO[C@H]1CC[C@@](CS)(C(=O)N[C@@H](Cc2ccccc2)C(=O)Nc2ccc(OC(F)(F)F)cc2)CC1 | < 5.00 | 7.09 | – |
| CCO[C@H]1CC[C@@](CS)(C(=O)N[C@@H](Cc2ccccc2)C(=O)Nc2ccccc2)CC1 (stereo in doubt; 14) | – | < 5.00 | – |
| CCO[C@H]1CC[C@@](CS)(C(=O)N[C@@H](Cc2ccccc2)C(=O)Nc2ccc(Cl)cc2)CC1 | 5.23 | 7.10 | – |
| CCC[C@H]1CC[C@@](CS)(C(=O)N[C@@H](Cc2ccccc2)C(=O)NC)CC1 | – | < 5.00 | – |
| CCO[C@H]1CC[C@@](CS)(C(=O)N[C@@H](Cc2cccs2)C(=O)Nc2ccccc2)CC1 | 6.02 | 7.38 | – |
| CNC(=O)[C@H](Cc1ccccc1)NC(=O)[C@]1(CS)CC[C@H](C(F)(F)F)CC1 | 6.17 | 6.97 | – |
| CNC(=O)[C@H](Cc1ccccc1)NC(=O)[C@@]1(CS)CCCC(OC)C1 (stereo partly specified) | – | < 5.00 | – |
| CCO[C@H]1CC[C@@](CS)(C(=O)N[C@@H](Cc2ccccc2)C(=O)Nc2ccccc2)CC1 (stereo in doubt; 13) | 5.91 | 7.31 | – |
| CNC(=O)[C@H](Cc1ccccc1)NC(=O)[C@]1(CS)CC[C@H](C(C)(C)C)CC1 | – | < 5.00 | – |
| CCO[C@H]1CC[C@@](CS)(C(=O)N[C@@H](Cc2ccccc2)C(=O)NC(C)C)CC1 | 6.17 | 7.40 | – |
| CCO[C@H]1CC[C@@](CS)(C(=O)N[C@@H](Cc2ccccc2)C(=O)NCc2ccccc2)CC1 | 6.08 | 7.59 | Plasma concentration (Rattus norvegicus [6]): 837 nM; Plasma concentration (Rattus norvegicus [7]): 491 nM |
| CNC(=O)[C@H](Cc1ccccc1)NC(=O)[C@]1(CS)CC[C@H](OC)CC1 | 6.96 | 7.46 | – |
